Entries after “also recorded” stand apart in the source; their conditions may differ.
Key:
[1] = system: pancreatic carcinoid BON cells; assay: Cell proliferation assay (MTT), BON cells; assay type: cell-based, Human; details: single agents and combinations, 2.5 mM VPA or 10 uM SBHA in FIGS. 20, 23
Protocol: (§7) Briefly, fifty μl of medium with or without tested compounds was added to 96-well plates. Another 50 μl of tested cancer cells (1×10^5 cells/ml) suspended in culture medium was dispensed into each well. The plates were incubated at 37° C. for 3 days. Afterward, plates were added with a 15 μl dye solution per well and incubated at 37° C. for 4 hours. To each well was then added 100 μl of the solubilization solution and the plates were incubated at 37° C. again until the contents in each well became a uniformly colored solution. The plates were measured at 570 nm by a Victor Reader (PerkinElmer).

[2] = system: small cell lung cancer DMS-53 cells; assay: Cell proliferation assay (MTT), DMS-53 cells; assay type: cell-based; details: single agents and combinations, 2.5 mM VPA or 10 uM SBHA in FIGS. 21, 24
Protocol: as §7

[3] = system: ovarian cancer OVCAR8 cells; assay: Cell proliferation assay (MTT), OVCAR8 cells; assay type: cell-based, Human; details: single agents and combinations
Protocol: (§1) Cell Proliferation Assay (MTT)
(§2) The cell proliferation assay was performed as described previously in Sun et al., Bioorg Med Chem Lett, 2004, Vol. 14, pp. 2041-2046. Briefly, 50 μl aliquots of medium with different concentrations of compounds were added to 96-well plates. All compound concentrations were tested in triplicate. Another 50 μl of the cell stock (1×10^5 cells/ml of media) was dispensed into each test well and the plates were incubated at 37° C. in a CO2 incubator for 3 days. Following the incubation period, 15 μl of the dye solution was added to each well and the plates were then incubated at 37° C. for 4 hours, followed by the addition of 100 μl per well of the solubilization solution. The plates were incubated at 37° C. until the contents in each well became a uniform-colored solution. The absorbance was measured and recorded at 570 nm by a Victor Plate Reader.
(§3) The cell proliferation assay (Promega, Madison, Wis.) was performed as described in Sun et al., Bioorg Med Chem Lett, 2004, Vol. 14, pp. 2041-2046. The absorbance was measured and recorded at 570 nm by a Victor Plate Reader (PerkinElmer, Boston, Mass.).

[4] = system: colonrectal cancer HT-29 cells; assay: Cell proliferation assay (MTT), HT-29 cells; assay type: cell-based, Human; details: single agents and combinations
Protocol: as §1, §2, §3

[5] = system: CNDT2 cells; assay: Cell proliferation assay (MTT), CNDT2 cells; assay type: cell-based; details: single agents and combinations
Protocol: (§4) Cell Proliferation Assay (MTT) The cell proliferation assay (Promega, Madison, Wis.) was performed as described in Sun et al., Bioorg Med Chem Lett, 2004, Vol. 14, pp. 2041-2046. The absorbance was measured and recorded at 570 nm by a Victor Plate Reader (PerkinElmer, Boston, Mass.).

[6] = system: medullary thyroid cancer (MTC) TT cells; assay: Cell proliferation assay (MTT), TT cells; assay type: cell-based; details: single agents and combinations
[7] = system: Jurkat cells; assay: Cell proliferation assay (MTT), Jurkat cells; assay type: cell-based
Protocol: as §4

[8] = system: cervical cancer Hela tumors; assay: In vivo tumor growth and treatment, Hela tumors; parameters: species or system nude mice; details: for tumor inhibitory rate: Hela tumors in nude mice
Protocol: In Vivo Tumor Growth and Treatment
(§8) All mice were monitored weekly. Tumor volumes were measured at 11 days post-implantation and bodyweights taken once a week. Tumors were weighed and photographed when experiments were over.
(§9) After being harvested during exponential growth phase, cells were washed 3 times with ice-cold PBS and then re-suspended in ice-cold PBS at a cell density of 4×10^7 cells/ml. […] Tumor-carrying mice were separated into four groups (n=8-10) for further treatment using s.c. injections that was applied in the flank opposite of the tumors. A control group was injected with PBS, and three tested groups were treated with compounds. One group received conjugate COL-SST (2 mg/kg) and one group received 200 mg/kg of VPA. The last group was treated with 100 mg/kg of VPA in combination with 1 mg/kg of COL-SST. All mice were injected once a day, five times a week. Tumor volumes were measured and bodyweights taken once a week.
After being harvested during their exponential growth phase, cells were washed 3 times with ice-cold PBS and then re-suspended in ice-cold PBS at a cell density of 4×10^7 cells/ml. […] Tumor-carrying mice were separated into four groups (n=8-10) for further treatment using s.c. injections that were applied in the flank opposite to the tumors. A control group was injected with PBS and three tested groups were treated with compounds. One group received conjugate COL-SST (2 mg/kg) and one group received 200 mg/kg of VPA. The last group was treated with 100 mg/kg of VPA in combination with 1 mg/kg of COL-SST. All mice were injected once a day, five times a week. Tumor volumes were measured and bodyweights taken once a week.

[9] = system: pancreatic carcinoid BON tumors; assay: In vivo tumor growth and treatment, BON tumors; parameters: species or system nude mice; details: FIG. 43
Protocol: In Vivo Tumor Growth and Treatment
as §8, §9
After being harvested during their exponential growth phase, cells were washed 3 times with ice-cold PBS and then re-suspended in ice-cold PBS at a cell density of 4×10^7 cells/ml. […] Tumor-carrying mice were separated into four groups (n=8-10) for further treatment using s.c. injections that were applied in the flank opposite to the tumors. […] Tumor volumes were measured and bodyweights taken once a week.

[10] = system: gene expression in pancreatic carcinoid BON cells; assay: RT-PCR / real-time PCR gene expression, BON cells; assay type: cell-based, Human
Protocol: RT-PCR, Real-Time PCR and PCR Array
Total RNAs were isolated from tumor cells as described in the kit protocol (Invitrogen, Carlsbad, Calif.).
As for real-time PCR, the primers are the same as described in Table 1. Real-time PCR assays were performed on a Bio-Rad iCycler (Hercules Calif.). Assays were set up using iScript™ cDNA Synthesis Kit and iQ™ SYBR Green Supermix (Bio-Rad). The cDNA synthesis was run for one cycle of 25° C. for 5 min, 42° C. for 30 min, 85° C. for 5 min, and held at 4° C. PCR reactions were run in 10 μl reactions. Each 10 μl reaction contained 4 μl template (either cDNA, genomic or plasmid DNA), 5 μl iQ SYBR Green Supermix (BioRad), and 0.25 μM each of the corresponding forward and reverse primers. PCR was further run under the conditions below: one cycle of 95° C. for 5 min for initial denaturation and 40 cycles of 95° C. for 30 s and 56° C. (SST), 57° C. (SSTR2) for 30 s for primer annealing and product elongation. For melt curve data collection and analysis, one cycle of 95° C. for 1 min and 55° C. for 1 min was run with an increase of the temperature at a rate of 0.5° C. from 55° C. to 95° C. The experiments were done by holding at 15° C. β-actin was used as internal control. Results were calculated using the comparative 2^−ΔΔCT methods as described in Livak et al., Methods, 2001, Vol. 25, pp. 402-408.
(§5) RT-PCR was performed on total RNA that was isolated from tumor cells as described in the protocol (Invitrogen, Carlsbad, Calif.). All primers for SST, BN, and PACAP receptors were obtained from previously published reports, such as Sun et al. 2011. The PCR amplification is regularly 35 cycles, with more or less cycles due to the difference in RNA abundance of these investigated genes. Primers used for real-time PCR analyses were identical to those described above. Real-time PCR assays were performed as described in Sun et al 2011. β-actin was used as the internal control and results were calculated by applying 2^−ΔΔCT methods as described above.

[11] = system: gene expression in MTC TT cells; assay: RT-PCR / real-time PCR gene expression, TT cells; assay type: cell-based
Protocol: as §5, with “RT-PCR, Real-Time PCR RT-PCR” for “RT-PCR”

[12] = system: pancreatic carcinoid BON cells; assay: VPA-induced cell morphological change, BON cells; assay type: cell-based, Human
Source text: (§6) The cancer cells were inspected and photographed under an inverted light microscope at 10× magnification.

[13] = system: SCLC DMS53 cells; assay: VPA-induced cell morphological change, DMS53 cells; assay type: cell-based
Source text: as §6

[14] = system: cancer DU-145 cells; assay: VPA-induced cell morphological change, DU-145 cells; assay type: cell-based
Source text: as §6

[15] = system: ovarian cancer NCI/ADR-RES cells; assay: VPA-induced cell morphological change, NCI/ADR-RES cells; assay type: cell-based
Source text: as §6

[16] = VPA treatment, confirmed by real-time PCR

With `CCCC(CCC)C(=O)O` [VPA, valproic acid] the “cell growth suppression (MTT), in words” value [1] was “displayed growth inhibition; also recorded: induced growth arrest; also recorded: suppressed growth”, the “cell growth suppression (MTT), in words” value [2] was “displayed growth inhibition; also recorded: induced growth arrest” and the “cell growth suppression (MTT), in words” value [3] was “displayed its anti-proliferative ability; also recorded: displays its anti-proliferation ability”. The “cell growth suppression (MTT), in words” value [4] was “displayed its anti-proliferative ability; also recorded: displays its anti-proliferation ability”, the “cell growth suppression (MTT), in words” value [5] was “suppressed growth” and the “cell growth suppression (MTT), in words” value [6] was “induced growth arrest”. The “cell growth suppression (MTT), in words” value [7] was “displayed its anti-proliferative ability”, the tumor inhibitory rate ([8]; VPA at 200 mg/kg s.c. once a day, five times a week, FIG. 42) was 36.7% and the tumor inhibitory rate ([8]; VPA at 200 mg/kg, FIG. 37) was 46%. For the same compound, the “suppression of Hela tumors, in words” value ([8]; nude mice, FIG. 42) was “induced suppression”, the tumor inhibitory rate ([9]; BON tumors in nude mice, VPA at 200 mg/kg s.c. once a day, five times a week) was 47.9% and the “suppression of BON tumors, in words” value ([9]; nude mice) was “induced suppression”. The “effect on expression of Notch receptors (RT-PCR), in words” value ([10]; VPA at serial doses, FIG. 52) was “increased the expression of Notch1, Notch2, and Notch3; Notch4 was undetectable”, the “induction of SSTR2 expression” value [10, 16] was 25 fold and the “effect on expression of SST, BN and PACAP receptors (RT-PCR), in words” value ([10]; VPA treatment, dose-dependent, FIG. 55) was “induced the expression of SSTR2 (25-fold, confirmed by real-time PCR), SSTR4, BRS3, GRPR, and VPAC2 and suppressed SSTR1”. The “slight decrease of SSTR5 expression” value ([10]; VPA treatment, real-time PCR) was 0.9 fold, the “effect on Notch1, SST, and SSTR2 expression, in words” value ([10]; different concentrations of VPA, beta-actin as control, FIG. 17) was “activated expression of Notch1, SST, and SSTR2” and the “effect on expression of Notch receptors (RT-PCR), in words” value ([11]; VPA at serial doses, FIG. 52) was “significantly increase Notch1, Notch2, and Notch3, with a decrease of Notch4 expression”. For the same compound, the “effect on expression of SST, BN and PACAP receptors (RT-PCR), in words” value ([11]; VPA treatment, FIG. 55) was “SSTR2 (2.2-fold, confirmed by real-time PCR), BRS3, NMBR, and VPAC2 increased and SSTR3 and VPAC1 decreased, with no obvious change in the others”, the “increase of SSTR2 expression” value [11, 16] was 2.2 fold and the “cell morphological change, in words” value [12] was “could induce morphological change”. The “cell morphological change, in words” value [13] was “no effect”, the “cell morphological change, in words” value [14] was “no effect” and the “cell morphological change, in words” value [15] was “no effect”.

Source: patent publication US9358272B2, “Multicomponent compositions and their uses” (THE ADMINISTRATORS OF THE TULANE EDUCATIONAL FUND, priority 2011, dated 2016)
